Test results: publication PMC7587356, “High-Throughput Screening for Inhibitors of the SARS-CoV-2 Protease Using a FRET-Biosensor” (Molecules, 2020)
Structures can show the parent of a compound that is named as a salt. Where two headings read alike, the source gives them in different places.

Target: SARS-CoV-2 3CLpro (Severe acute respiratory syndrome coronavirus 2, UniProt P0DTD1)
Assay: biochemical
Assay type: biochemical
Set-up: Replicate_1 / Replicate_2 / mean / mean (LOPAC_screen_w_protease): unit not given here
Conditions: for inhibition at 5 µM: 4 h
[1] = sheet LOPAC_screen_w_protease, primary screen of LOPAC1280 at 5 µM with protease, mean of the two replicates
[2] = sheet LOPAC_screen_w_protease, primary screen of LOPAC1280 at 5 µM with protease, replicate 1
[3] = sheet LOPAC_screen_w_protease, primary screen of LOPAC1280 at 5 µM with protease, replicate 2
[4] = sheet LOPAC_screen_w_protease, LOPAC1280 primary screen with protease, 5 µM compound, mean of the two replicates, read-out: mean
[5] = sheet LOPAC_screen_w_protease, LOPAC1280 primary screen with protease, 5 µM compound, replicate 1, read-out: Replicate_1
[6] = sheet LOPAC_screen_w_protease, LOPAC1280 primary screen with protease, 5 µM compound, replicate 2, read-out: Replicate_2
[7] = sheet LOPAC_screen_w_protease, primary screen of LOPAC1280 at 5 µM with protease, mean of the two replicates, read-out: mean
[8] = sheet LOPAC_screen_w_protease, primary screen of LOPAC1280 at 5 µM with protease, replicate 1, read-out: Replicate_1
[9] = sheet LOPAC_screen_w_protease, primary screen of LOPAC1280 at 5 µM with protease, replicate 2, read-out: Replicate_2

In the case of `C[N+](C)(C)CC#CCOC(=O)Nc1cccc(Cl)c1.[Cl-]` [McN-A-343], the mean [1] is reported as 3.792, the Replicate_1 [2] is reported as 2.713 and the Replicate_2 [3] is reported as 4.871.
In the case of `CNC1(C)C2CCC(C2)C1(C)C` (stereo not drawn) [Mecamylamine hydrochloride], the inhibition at 5 µM [4] is reported as 4.7%, the inhibition at 5 µM [5] is reported as 5.3% and the inhibition at 5 µM [6] is reported as 4.09%.
Compound `Cc1ccc(Cl)c(Nc2ccccc2C(=O)O)c1Cl` [Meclofenamic acid sodium] has an inhibition at 5 µM (read-out: Replicate_1) of 1.45%, an inhibition at 5 µM (read-out: Replicate_2) of 5.52% and an inhibition at 5 µM (read-out: mean) of 3.48%.
In the case of `COc1ccc2[nH]cc(CCNC(C)=O)c2c1` [Melatonin], the inhibition at 5 µM (sheet LOPAC_screen_w_protease, primary screen with protease, mean of two replicates, read-out: mean) is reported as 2.28%, the inhibition at 5 µM (sheet LOPAC_screen_w_protease, primary screen with protease, replicate 1, read-out: Replicate_1) is reported as 3.18% and the inhibition at 5 µM (sheet LOPAC_screen_w_protease, primary screen with protease, replicate 2, read-out: Replicate_2) is reported as 1.38%.
In the case of `CN1C[C@@H](NS(=O)(=O)N(C)C)C[C@@H]2c3cccc4c3c(cn4C)C[C@H]21` [Mesulergine hydrochloride], the inhibition at 5 µM [4] is reported as 5.36%, the inhibition at 5 µM [5] is reported as 4.85% and the inhibition at 5 µM [6] is reported as 5.86%.
Compound `S=C=Nc1cccc(C2(N3CCCCC3)CCCCC2)c1` [Metaphit methanesulfonate] has an inhibition at 5 µM [4] of 5.96%, an inhibition at 5 µM [5] of 6.38% and an inhibition at 5 µM [6] of 5.54%.
`CC(C)NCC(O)c1cc(O)cc(O)c1.CC(C)NCC(O)c1cc(O)cc(O)c1.O=S(=O)(O)O` (stereo not drawn) [Metaproterenol hemisulfate] showed a mean (sheet LOPAC_screen_w_protease, LOPAC1280 primary screen with protease, 5 µM compound, mean of the two replicates) of 4.319, a Replicate_1 (sheet LOPAC_screen_w_protease, LOPAC1280 primary screen with protease, 5 µM compound, replicate 1) of 2.0521 and a Replicate_2 (sheet LOPAC_screen_w_protease, LOPAC1280 primary screen with protease, 5 µM compound, replicate 2) of 6.586.
`CN1C[C@H](CNC(=O)OCc2ccccc2)C[C@@H]2c3cccc4c3c(cn4C)C[C@H]21` [Metergoline] showed an inhibition at 5 µM [7] of 4.08%, an inhibition at 5 µM [8] of 2.56% and an inhibition at 5 µM [9] of 5.6%.
For `CSc1ccc2c(c1)C(N1CCN(C)CC1)Cc1ccccc1S2` (stereo not drawn) [Methiothepin mesylate], the inhibition at 5 µM [4] was 4.09%, the inhibition at 5 µM [5] was 3.76% and the inhibition at 5 µM [6] was 4.42%.
In the case of `COc1ccccc1CNCCCCCCNCCCCCCCCNCCCCCCNCc1ccccc1OC.Cl.Cl.Cl.Cl` [Methoctramine tetrahydrochloride], the mean [1] is reported as 4.069, the Replicate_1 [2] is reported as 5.6561 and the Replicate_2 [3] is reported as 2.482.
`COc1ccc(OC)c(C(O)C(C)N)c1` (stereo not drawn) [Methoxamine hydrochloride] gave an inhibition at 5 µM [7] of 3.32%, an inhibition at 5 µM [8] of 2.74% and an inhibition at 5 µM [9] of 3.89%.
With `COC(=O)c1cc2c(cn1)[nH]c1ccccc12` [Methyl beta-carboline-3-carboxylate] the mean [1] was 3.265, the Replicate_1 [2] was 4.868 and the Replicate_2 [3] was 1.662.
With `CNC(=O)OCC[N+](C)(C)C` [Methylcarbamylcholine chloride] the inhibition at 5 µM (sheet LOPAC_screen_w_protease, primary screen with protease, compound at 5 µM, mean of two replicates, read-out: mean) was 3%, the inhibition at 5 µM (sheet LOPAC_screen_w_protease, primary screen with protease, compound at 5 µM, replicate 1, read-out: Replicate_1) was 4.73% and the inhibition at 5 µM (sheet LOPAC_screen_w_protease, primary screen with protease, compound at 5 µM, replicate 2, read-out: Replicate_2) was 1.26%.
Compound `CC[C@@H](CO)NC(=O)[C@@H]1C=C2c3cccc4[nH]cc(c34)C[C@H]2N(C)C1` [Methylergonovine maleate] has an inhibition at 5 µM (read-out: Replicate_1) of 1.27%, an inhibition at 5 µM (read-out: Replicate_2) of 0.625% and an inhibition at 5 µM (read-out: mean) of 0.949%.
Work on `Cc1ccccc1N1C(=O)c2cc(S(N)(=O)=O)c(Cl)cc2NC1C` (stereo not drawn) [Metolazone] yielded an inhibition at 5 µM [4] of 5.24%, an inhibition at 5 µM [5] of 4.55% and an inhibition at 5 µM [6] of 5.92%.
In the case of `Cc1ccccc1/C=C/C1=NCCN1` [Metrazoline oxalate], the inhibition at 5 µM (LOPAC1280 primary screen with protease, 5 µM compound, replicate 1, read-out: Replicate_1 (LOPAC_screen_w_protease)) is reported as 2.83%, the inhibition at 5 µM (LOPAC1280 primary screen with protease, 5 µM compound, replicate 2, read-out: Replicate_2 (LOPAC_screen_w_protease)) is reported as 0.879% and the “mean (LOPAC_screen_w_protease)” value (LOPAC1280 primary screen with protease, 5 µM compound, mean of the two replicates) is reported as 1.853.
Compound `Cc1ccccc1CNc1ncnc2c1ncn2[C@@H]1O[C@H](CO)[C@@H](O)[C@H]1O` [Metrifudil] has an inhibition at 5 µM [4] of 4.56%, an inhibition at 5 µM [5] of 4.09% and an inhibition at 5 µM [6] of 5.03%.
`CC[C@H](C)C(=O)O[C@H]1CCC=C2C=C[C@H](C)[C@H](CC[C@@H]3C[C@@H](O)CC(=O)O3)[C@H]21` [Mevastatin] gave an inhibition at 5 µM [4] of 4.58%, an inhibition at 5 µM [5] of 3.98% and an inhibition at 5 µM [6] of 5.17%.
`COCC(=O)O[C@]1(CCN(C)CCCc2nc3ccccc3[nH]2)CCc2cc(F)ccc2[C@@H]1C(C)C` [Mibefradil dihydrochloride] showed an inhibition at 5 µM [4] of 4.42%, an inhibition at 5 µM [5] of 3.3% and an inhibition at 5 µM [6] of 5.54%.
